According to patent US7628991B2, “Use of Lactobacillus farciminis for the prevention or treatment of digestive pathologies” (Institute National de la Recherche Agronomique (INRA), priority 2002, dated 2009):

What was measured:
[1] = test system: colonic inflammation induced by TNBS/ethanol; assay: Myeloperoxidase (MPO) activity of the colon wall, TNBS/ethanol-induced colitis (Example 1); type: in vivo, WISTAR rats; conditions: rats without TNBS/ethanol (0.9% NaCl instillation); intracolonic infusion for 4 days
Excerpt: (§1) This colitis is characterized by an increase in myeloperoxidase (MPO) activity, a marker of the degree of infiltration of polynuclear neutrophils in the colonic mucosa, and by the increase in the macroscopic lesion score (MLS) taking into account the seriousness and the extent of the macroscopic lesions appearing, the presence and seriousness of adherences and the presence or nonpresence of diarrhea in the colon.
The effects of a treatment with a nitric oxide donor, sodium nitroprusside (SNP), or with L. farciminis on a TNBS-induced colitis in rats were compared. Moreover, the effective role of exogenous nitric oxide in these effects was evaluated using an NO scavenger, hemoglobin (Hb). […]
The myeloperoxidase (MPO) activity is determined on colon samples isolated according to the protocol described by BRADLEY et al. (J. Invest. Dermatol., 78, 206-209, 1982). […]
The MPO activity is determined by spectrophotometry. […] The changes in absorbance. (450 nm, 25° C.) were determined by kinetic spectrophotometry of 2 minutes, according to the balanced equation for the enzymatic reaction catalyzed by MPO: H2O2+Cl^−=H2O+HOCl (orange color), and expressed as MPO units.
One MPO activity unit is defined as the quantity of MPO degrading 1 μmol of hydrogen peroxide per minute per milliliter at 25° C. […]

[2] = test system: colonic inflammation induced by TNBS/ethanol; assay: Macroscopic lesion score (MLS) of the colon, TNBS/ethanol-induced colitis (Example 1); type: in vivo, WISTAR rats; conditions: rats instilled with TNBS/ethanol, 4 days after instillation; daily intracolonic infusion; SNP 1 mg/kg/day, Hb 200 mg/kg/day
Excerpt: as §1
For the study of the effects of SNP, 7 groups of WISTAR rats of 200-250 grams were provided, under anesthetic, with an intracolonic catheter (+2 cm from the caeco-colonic junction) exteriorized at the level of the dorsoscapular region. At D+5, the rats receive an intracolonic instillation of 80 mg/kg/day of TNBS/ethanol (groups 4-7) or of a 0.9% NaCl solution (groups 1-3). 4 hours after the instillation, the rats are infused at a flow rate of 250 μl/hour with 1 mg/kg/day of SNP (groups 2 and 5), or 200 mg/kg/day of Hb (groups 3 and 7), or an SNP+Hb mixture (group 6), or a 0.9% NaCl solution (groups 1 and 4), for 4 days. […]
The macroscopic lesion score (MLS) is determined on isolated colonic samples as described by WALLACE et al., (Gastroenterology, 102, 18-27, 1992) according to the assessment grid below: […]

Substance: hemoglobin [Hb]
- MPO activity of the colon wall [1]: 426±117 MPO U/g of proteins
- Macroscopic lesion score (MLS) [2]: 5.8±1.3
